Test results as given in PMC3413214, “Structural and biochemical characterization of a trapped coenzyme A adduct of Caenorhabditis elegans glucosamine-6-phosphate N-acetyltransferase 1” (Acta Crystallographica Section D: Biological Crystallography, 2012).

How the values were obtained:
[1] = biological target: T1, CeGNA1 (Caenorhabditis elegans, UniProt Q17427); assay: X-ray crystal structure, […] Å; assay type: binding; conditions: ternary product complex with CoA; acceptor (GlcN-6P) subsite at dimer interface; crystals at pH 8.5
T1 construct: gene gna-1; full-length, 165 residues; GST fusion from pGEX-6P-1 in E. coli BL21(DE3) pLysS, GST cut with PreScission protease; homodimer; 18 876 Da by MALDI

[2] = biological target: T1, CeGNA1; assay: X-ray crystal structure, […] Å; MALDI-TOF mass spectrometry; assay type: binding; conditions: covalent; disulfide to Cys141, inactive enzyme, reversed by DTT; nonreducing crystallisation, pH 8.5

T1 sequence (Q17427 whole entry, the tested form may be a part): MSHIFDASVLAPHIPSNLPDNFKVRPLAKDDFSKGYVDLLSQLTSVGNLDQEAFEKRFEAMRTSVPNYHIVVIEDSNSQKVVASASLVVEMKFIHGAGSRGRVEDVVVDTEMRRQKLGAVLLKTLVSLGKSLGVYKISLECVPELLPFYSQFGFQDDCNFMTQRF

SMILES	X-ray crystal structure, 1.75 Å [1]	X-ray crystal structure, 1.55 Å; MALDI-TOF mass spectrometry [2]
CC(=O)N[C@H]1C(O)O[C@H](COP(=O)(O)O)[C@@H](O)[C@@H]1O (some centres unmarked) [GlcNAc-6P]	occupied by the products CoA and GlcNAc-6-phosphate, both with well defined electron density	
CC(C)(COP(=O)(O)OP(=O)(O)OC[C@H]1O[C@@H](n2cnc3c(N)ncnc32)[C@H](O)[C@@H]1OP(=O)(O)O)[C@@H](O)C(=O)NCCC(=O)NCCS [CoA]		the CoA thiol has formed a covalent complex with the enzyme through a disulfide
